Consider 39 compounds from ChEMBL document CHEMBL3792309, “Seeking potent anti-tubercular agents: Design, synthesis, anti-tubercular activity and docking study of various ((triazoles/indole)-piperazin-1-yl/1,4-diazepan-1-yl)benzo[d]isoxazole derivatives” (Bioorg Med Chem Lett, 2016).

Values after ≈ are worked out from the molar mass of the structure shown. Bounds are passed on as bounds.

Data set [1] concerns Mycobacterium tuberculosis. Description: Antimicrobial activity against Mycobacterium tuberculosis H37Rv by classical test tube method. It is filed as functional.
Data set [2] concerns Mycobacterium tuberculosis. Description: Antimicrobial activity against p-aminosalicylic acid/isonicotinic acid hydrazide/etambutol/rifampicin sensitive Mycobacterium tuberculosis Spec. 192 by classical test tube method. It is filed as functional.
Data set [3] deals with Mycobacterium tuberculosis. Description: Antimicrobial activity against Mycobacterium tuberculosis H37Rv assessed as growth inhibition at 257.59 uM by classical test tube method. The class given is functional. As to conditions: read-out: GI.
For a further data set, the system named is RAW264.7. As to the kind of experiment: Cytotoxicity against mouse RAW264.7 cells assessed as inhibition of cell viability after 72 hrs by CellTiter 96 non radioactive cell proliferation assay. It is filed as cell-based. As to conditions: RAW264.7, 72 h.
A short description of data set [4]: Selectivity index, ratio of IC50 for mouse RAW264.7 cells to MIC for Mycobacterium tuberculosis H37Rv. The class given is toxicity. Particulars: read-out: Selectivity Index.
Data set [5] can be described thus: Cytotoxicity against mouse RAW264.7 cells assessed as inhibition of cell viability at 113.07 uM after 72 hrs by CellTiter 96 non radioactive cell proliferation assay. It is filed as cell-based.
A short description of data set [6]: Cytotoxicity against mouse RAW264.7 cells assessed as inhibition of cell viability at 96.13 uM after 72 hrs by CellTiter 96 non radioactive cell proliferation assay. It is filed as cell-based.
The nature of data set [7]: Cytotoxicity against mouse RAW264.7 cells assessed as inhibition of cell viability at 116.78 uM after 72 hrs by CellTiter 96 non radioactive cell proliferation assay. It is filed as cell-based.
A short description of data set [8]: Cytotoxicity against mouse RAW264.7 cells assessed as inhibition of cell viability at 98.8 uM after 72 hrs by CellTiter 96 non radioactive cell proliferation assay. The class given is cell-based.

What is called MIC is the least concentration at which growth counts as inhibited. What is called IC50 is the concentration that gives 50% inhibition. As usually defined, the inhibition is the relative decrease from the control value, in per cent.

For `O=[N+]([O-])c1ccc(-n2cc(CN3CCCN(c4noc5ccccc45)CC3)nn2)cc1`, the MIC in [1] and in [2] was over 200 µM throughout.
With `CCc1ccc(-n2cc(CN3CCN(c4noc5ccccc45)CC3)nn2)cc1`, the inhibition of growth at 257.59 µM in data set [3] was 99%. For the same compound, the MIC in data set [1] and in [2] was over 200 µM each time.
For `NNC(=O)c1ccncc1` [ISONIAZID], the MIC in data set [1] and in data set [2] was 91.1 µM (≈ 12.5 µg/mL) each time.
For `COc1ccc(-n2cc(CN3CCCN(c4noc5ccccc45)CC3)nn2)cc1`, the MIC in [1] and in [2] was over 200 µM in each case.
As for `O=C(CCCc1c[nH]c2ccccc12)N1CCCN(c2noc3ccccc23)CC1`, the MIC in data set [1] and in data set [2] was over 200 µM in each case.
`Clc1ccc(-n2cc(CN3CCCN(c4noc5ccccc45)CC3)nn2)cc1`: the MIC in [1] and in [2] was over 200 µM each time.
For `FC(F)(F)c1cccc(-n2cc(CN3CCCN(c4noc5ccccc45)CC3)nn2)c1`, the MIC in [1] and in data set [2] was 28.3 µM (≈ 12.5 µg/mL) throughout. Moreover, in the data set with RAW264.7, the IC50 was 178 µM. Besides, in [4], the selectivity ratio is 6.29. Also, the inhibition at 72 h, 113.07 µM in [5] worked out at 31.8%.
As to `Clc1ccc(-n2cc(CN3CCN(c4noc5ccccc45)CC3)nn2)cc1`, the MIC in data set [1] and in [2] was over 200 µM throughout.
For `Brc1ccc(-n2cc(CN3CCN(c4noc5ccccc45)CC3)nn2)cc1`, the MIC in data set [1] and in data set [2] was over 200 µM throughout.
As to `Fc1ccc(-n2cc(CN3CCN(c4noc5ccccc45)CC3)nn2)cc1`, the MIC in data set [1] and in [2] was 132 µM (≈ 50 µg/mL) throughout.
Regarding `FC(F)(F)c1cc(-n2cc(CN3CCCN(c4noc5ccccc45)CC3)nn2)ccc1Br`, the MIC in [1] and in [2] was 24 µM (≈ 12.5 µg/mL) in each case. Also, the IC50 in the data set with RAW264.7 amounted to 181 µM. In addition, the selectivity ratio in data set [4] was found to be 7.54. Moreover, in data set [6], the inhibition at 72 h, 96.13 µM was found to be 26.5%.
In the case of `O=C(Cc1c[nH]c2ccccc12)N1CCN(c2noc3ccccc23)CC1`, the MIC in [1] and in data set [2] was over 200 µM in each case.
As for `C#CCN1CCN(c2noc3ccccc23)CC1`, the MIC in data set [1] and in data set [2] was over 200 µM in each case.
As to `C#CCN1CCCN(c2noc3ccccc23)CC1`, the MIC in data set [1] and in [2] was 196 µM (≈ 50 µg/mL) in each case.
With `Clc1cccc(-n2cc(CN3CCCN(c4noc5ccccc45)CC3)nn2)c1`, the MIC in [1] and in data set [2] was 122 µM (≈ 50.1 µg/mL) each time.
For `COc1ccc(-n2cc(CN3CCN(c4noc5ccccc45)CC3)nn2)cc1`, the MIC in data set [1] and in data set [2] was over 200 µM in each case.
`O=C(CCCc1c[nH]c2ccccc12)N1CCN(c2noc3cc(Cl)ccc23)CC1`: the MIC in data set [1] and in data set [2] was over 200 µM in each case.
As for `FC(F)(F)c1cccc(-n2cc(CN3CCN(c4noc5ccccc45)CC3)nn2)c1`, the MIC in [1] and in data set [2] was 29.2 µM (≈ 12.5 µg/mL) throughout. Besides, the inhibition at 72 h, 116.78 µM in data set [7] worked out at 19.2%. The IC50 in the data set on RAW264.7 was 305 µM. In data set [4], the selectivity ratio worked out at 10.4.
As to `CCc1ccc(-n2cc(CN3CCCN(c4noc5ccccc45)CC3)nn2)cc1`, the MIC in data set [1] and in data set [2] was over 200 µM each time.
As to `Clc1cccc(-n2cc(CN3CCN(c4noc5ccccc45)CC3)nn2)c1`, the MIC in data set [1] and in data set [2] was 63.4 µM (≈ 25 µg/mL) in each case.
For the compound `Brc1ccc(-n2cc(CN3CCCN(c4noc5ccccc45)CC3)nn2)cc1`, the MIC in [1] and in data set [2] was over 200 µM throughout.
For the compound `O=C(CCCc1c[nH]c2ccccc12)N1CCN(c2noc3ccccc23)CC1`, the MIC in data set [1] and in data set [2] was over 200 µM each time.
In the case of `Fc1ccc(-n2cc(CN3CCN(c4noc5cc(Cl)ccc45)CC3)nn2)cc1`, the MIC in [1] and in data set [2] was 121 µM (≈ 50.1 µg/mL) each time.
For `O=C(Cc1c[nH]c2ccccc12)N1CCN(c2noc3cc(Cl)ccc23)CC1`, the minimum inhibitory concentration (MIC) in [1] and in data set [2] was 127 µM (≈ 50.1 µg/mL) throughout.
On to `Clc1ccc(-n2cc(CN3CCN(c4noc5cc(Cl)ccc45)CC3)nn2)cc1`, for which the MIC in data set [1] and in data set [2] was over 200 µM throughout.
Consider `O=C(CCc1c[nH]c2ccccc12)N1CCCN(c2noc3ccccc23)CC1`, for which the minimum inhibitory concentration (MIC) in data set [1] and in [2] was over 200 µM in each case.
Regarding `C#CCN1CCN(c2noc3cc(Cl)ccc23)CC1`, the MIC in [1] and in data set [2] was 182 µM (≈ 50.1 µg/mL) throughout.
In the case of `COc1cccc(-n2cc(CN3CCN(c4noc5ccccc45)CC3)nn2)c1`, the MIC in [1] and in [2] was 128 µM (≈ 50 µg/mL) in each case.
Regarding `O=C(CCc1c[nH]c2ccccc12)N1CCN(c2noc3ccccc23)CC1`, the MIC in data set [1] and in data set [2] was over 200 µM throughout.
In the case of `COc1cccc(-n2cc(CN3CCCN(c4noc5ccccc45)CC3)nn2)c1`, the minimum inhibitory concentration (MIC) in data set [1] and in data set [2] was over 200 µM each time.
Turning to `O=[N+]([O-])c1ccc(-n2cc(CN3CCN(c4noc5cc(Cl)ccc45)CC3)nn2)cc1`, the MIC in data set [1] and in data set [2] was over 200 µM throughout.
For the compound `COc1ccc(-n2cc(CN3CCN(c4noc5cc(Cl)ccc45)CC3)nn2)cc1`, the MIC in data set [1] and in data set [2] was 118 µM (≈ 50.1 µg/mL) throughout.
For the compound `O=C(CCc1c[nH]c2ccccc12)N1CCN(c2noc3cc(Cl)ccc23)CC1`, the MIC in data set [1] and in data set [2] was over 200 µM throughout.
As to `CCc1ccc(-n2cc(CN3CCN(c4noc5cc(Cl)ccc45)CC3)nn2)cc1`, the MIC in [1] and in data set [2] was over 200 µM in each case.
As for `Fc1ccc(-n2cc(CN3CCCN(c4noc5ccccc45)CC3)nn2)cc1`, the MIC in [1] and in data set [2] was 127 µM (≈ 50 µg/mL) in each case.
On to `Clc1ccc2c(N3CCN(Cc4cn(-c5ccc(Br)cc5)nn4)CC3)noc2c1`, for which the minimal inhibitory concentration (MIC) in data set [1] and in data set [2] was over 200 µM throughout.
For the compound `O=C(Cc1c[nH]c2ccccc12)N1CCCN(c2noc3ccccc23)CC1`, the MIC in [1] and in [2] was 134 µM (≈ 50 µg/mL) throughout.
Take `FC(F)(F)c1cc(-n2cc(CN3CCN(c4noc5ccccc45)CC3)nn2)ccc1Br`: the MIC in data set [1] and in data set [2] was 6.16 µM (≈ 3.13 µg/mL) each time. Further, the IC50 with RAW264.7 was 223 µM. The selectivity ratio in data set [4] was determined as 36.1. Further, the inhibition at 72 h, 98.8 µM in [8] is 22.2%.
With `O=[N+]([O-])c1ccc(-n2cc(CN3CCN(c4noc5ccccc45)CC3)nn2)cc1`, the MIC in data set [1] and in data set [2] was over 200 µM each time.
